Assay results as given in patent EP1658776A1, “Method for producing live food water organisms in the presence of an antibacterial” (priority 2004, dated 2006).
Marks after values point to notes of the source that are not given here.

Columns and labels:
[1] = tested on: Artemia cysts; experiment: Hatching percentage of Artemia cysts sprayed with silver nitrate / thiosulphate (Example 1); format: in vivo, Artemia (GSL-strain); conditions: 24h incubation
Procedure: (§1) 1000 g commercially available dry cysts from Great Salt Lake (GSL-strain) were sprayed with 20 ml solution to which 2.43g or 2.02g AgNO3 is added and another 1000 g cysts were sprayed with 20 ml to which 14.20g or 11.81g thiosulphate (Na2S2O3.5(H2O)) is added (in a ratio of 4 mol thiosulphate to 1 mol AgNO3) to obtain respectively 1.50 or 1.25 mg Ag/l in the hatching medium, after incubation of 2g treated cysts therein. The cysts were gently mixed for 15-30 minutes while spraying. Both fractions were mixed together in a ratio of (1:1). The cysts were vacuum packed and stored at different temperatures (4°C, 20°C and 30°C). Cysts from the same batch were kept as a control. After 4 weeks they were incubated at 2g (treated) cysts /l, following standard procedures, i.e.: salinity of 25 g/I, temperature of 30°C. Continuous illumination and air bubbling was provided. After 24 hours of incubation, samples of the hatching medium were taken for determination of the total count on Marine agar (MA) and Vibrio sp. on TCBS (specific growth medium for Vibrio sp.). The hatching percentage (percentage of cysts that hatch on the total of full cysts) of the cysts was calculated. Tabel 1: Hatching percentage (HP) of cysts, number of colony forming units (cfu) per ml of hatching medium on MA and on TCBS after 24h incubation of Artemia cysts of control cysts and cysts with different amounts of AgNO3 (expressed as mg Ag/l hatching medium). Each value is the average of three counts.

[2] = tested on: Vibrio sp.; experiment: Vibrio reduction by silver combined with berberine during hatching (Example 4, Figure 2); format: cell-based
Procedure: GSL-cysts were incubated at 2g cysts /l, following standard procedures, i.e.: salinity of 25 g/l, temperature of 30°C. Continuous illumination and air bubbling was provided. Silver nitrate, thiosulphate and berberine were added in different concentrations to the hatching medium. After 24 hours, the hatching percentage was calculated and samples of the hatching medium were taken for determination of Vibrio sp. on TCBS.

[3] = tested on: Vibrio sp.; experiment: Vibrio count on TCBS in enrichment medium (Example 5); format: cell-based; conditions: after 24 hours enrichment; compared to the non treated culture medium
Procedure: Artemia nauplii Instar I were harvested from the hatching tank, rinsed and incubated in cylindrical conical tanks with 90L water with a salinity of 35 g/l and a temperature of 28°C. The pH was controlled at 7.5. Stocking density of the nauplii was 300 nauplii / ml. The enrichment product 'Easy DHA Selco' which is a commercially available Seleco™-type enrichment product was added at the start of the enrichment at 600 mg/l. The dose of the silver (silver thiosulphate) in three of the six enrichment tanks was 1.5 mg Ag /l. In the three other tanks, Ag was not added. Samples of Artemia nauplii to analyse the levels of HUFA were taken at the end of the enrichment, thus 24 hours after adding the enrichment diets. At the same time, samples of the enrichment medium were taken for determination of Vibrio sp. on TCBS. Table 3: Highly unsaturated fatty acid levels (mg/g DW) of Artemia nauplli Instar II and bacterial concentrations (cfu/ml) on marine agar and TCBS of the enrichment medium after 24 hours enrichment with and without silver.

[4] = tested on: Artemia cysts; experiment: Hatching percentage of treated cysts after storage at different temperatures (Example 2, Figures 1a/1b); format: in vivo, Artemia (GSL-strain); conditions: AgNO3 (and thiosulphate) applied on cysts; 1 to 8 weeks of storage at 20° C or more
Procedure: 1000 g commercially available dry cysts (GSL-strain) were sprayed with a 20 ml solution to which 2.43g AgNO3 and another 1000g cysts were sprayed 20 ml solution to which 14.20g thiosulphate (Na2S2O3.5(H2O)) was added. The cysts were gently mixed for 15 - 30 minutes while spraying. Both fractions of cysts were mixed together in a ratio of [1:1]. The cysts were vacuum packed and stored at different temperatures (4°C, 20°C and 30°C) for 1 to 8 weeks. At different time intervals (1 week, 2 weeks, 4 weeks and 8 weeks) they were incubated at 2g (treated) cysts /l following standard procedures, i.e.: salinity of 25 g/l, temperature of 30°C. Continuous illumination and air bubbling was provided. After 24 hours, the hatching percentage (percentage of cysts that hatch on the total of full cysts) was calculated. These values were compared with a former batch of cysts on which 1.4 mg/l of the bactericidal isothiazolin derivative comprising 5-chloro-2-methyl-4-isothiazolin-3-one and 2-methyl-4-isothiazolin-3-one was applied.

[5] = tested on: Vibrio species; experiment: Vibrio counts on TCBS in hatching medium, silver with or without thiosulphate (Example 3); format: cell-based, Vibrio sp.; conditions: 24 hours; for Vibrio counts on TCBS (cfu/ml) With thiosulphate: silver nitrate:thiosulphate 1:4
Procedure: (§2) GSL-cysts were incubated at 2g cysts /l, following standard procedures, i.e.: salinity of 25 g/l, temperature of 30°C. Continuous illumination and air bubbling was provided. Different concentrations of silver nitrate were added to the hatching medium. Thiosulphate was added to compare its effect on the hatching of Artemia and reduction of Vibrio sp. When thiosulphate was added, the molecular ratio of silver nitrate to thiosulphate was (1:4). After 24 hours, samples of the hatching medium were taken for determination of Vibrio sp. on TCBS and hatching percentage was calculated. Table 2: Effect of thiosulphate in combination with Ag, on hatching percentage of Artemia and on the amount of Vibrio species in the hatching medium

[6] = tested on: oyster embryos; conditions: natural seawater; cited from earlier work
[7] = tested on: mussel; conditions: natural seawater; cited from earlier work
[8] = tested on: crab larvae; conditions: natural seawater; cited from earlier work
[9] = tested on: marine heterotrophic bacterial population; experiment: Total bacterial count on Marine agar in hatching medium (Example 1); format: cell-based; conditions: for MA (cfu/ml): 24h incubation
Procedure: as §1

[10] = tested on: Vibrio sp.; experiment: Vibrio count on TCBS in hatching medium (Example 1); format: cell-based; conditions: for TCBS (cfu/ml): 24h incubation
Procedure: as §1

[11] = tested on: Artemia; experiment: Hatching percentage with silver in hatching medium, with or without thiosulphate (Example 3); format: in vivo, Artemia (GSL-cysts); conditions: for Hatching percentage (%) Without thiosulphate / Hatching percentage (%) With thiosulphate: 24 hours; for Hatching percentage (%) With thiosulphate: silver nitrate:thiosulphate 1:4
Procedure: as §2

[12] = tested on: pathogenic Vibrio sp.; experiment: Vibrio in shrimp tanks fed Artemia nauplii enriched in the presence of Ag; format: in vivo; conditions: Artemia nauplii enriched in the presence of Ag fed for 14 days to larval shrimp; versus control enrichment
[13] = tested on: gram-positive bacteria; conditions: against gram-positive bacteria; cited from earlier work
[14] = 1.25 mg/l Ag (AgNO3 + thiosulphate on cysts), storage 20°C
[15] = 1.25 mg/l Ag (AgNO3 + thiosulphate on cysts), storage 30°C
[16] = 1.50 mg/l Ag (AgNO3 + thiosulphate on cysts), storage 4°C
[17] = 1.50 mg/l Ag (AgNO3 + thiosulphate on cysts), storage 20°C
[18] = 1.50 mg/l Ag (AgNO3 + thiosulphate on cysts), storage 30°C
[19] = 1.25 mg/l Ag (AgNO3 + thiosulphate on cysts), storage 4°C
[20] = after 24 hours, summary of Table 1

## O=[N+]([O-])[O-].[Ag+] [Ag, silver nitrate]
[1]; [14]
  HP (%): 80.3%
[1]; [15]
  HP (%): 82.6%
[1]; 1.25 mg/l Ag in hatching medium (AgNO3 + thiosulphate 1:4 mol on cysts), cysts stored 4 weeks at 4°C
  HP (%): 84.5%
[1]; [16]
  HP (%): 81.4%
[1]; [17]
  HP (%): 82.2%
[1]; [18]
  HP (%): 81.2%
[2]; 0.1 mg Ag per liter, with or without thiosulphate, no berberine
  decrease of Vibrio sp. in the hatching medium: usually not sufficient to decrease the Vibrio sp.
[3]
  Vibrio count on TCBS: significantly less
[4]
  Hatching percentage: did not decrease
[5]; Ag 0.1 mg/l as silver nitrate
  Vibrio counts on TCBS (cfu/ml) Without thiosulphate: 7.96 x 10^6 cfu/ml
[5]; Ag 0.1 mg/l
  Vibrio counts on TCBS (cfu/ml) With thiosulphate: 1.47 x 10^5 cfu/ml
[5]; Ag 0.25 mg/l as silver nitrate
  Vibrio counts on TCBS (cfu/ml) Without thiosulphate: 1.79 x 10^5 cfu/ml
[5]; Ag 0.25 mg/l
  Vibrio counts on TCBS (cfu/ml) With thiosulphate: 1.70 x 10^4 cfu/ml
[5]; Ag 0.5 mg/l as silver nitrate
  Vibrio counts on TCBS (cfu/ml) Without thiosulphate: 3.48 x 10^4 cfu/ml
[5]; Ag 0.5 mg/l
  Vibrio counts on TCBS (cfu/ml) With thiosulphate: <3.00 x 10^2 cfu/ml
[5]; Ag 0.75 mg/l as silver nitrate
  Vibrio counts on TCBS (cfu/ml) Without thiosulphate: 6.23 x 10^2 cfu/ml
[5]; Ag 1.0 mg/l as silver nitrate
  Vibrio counts on TCBS (cfu/ml) Without thiosulphate: 4.80 x 10^2 cfu/ml
[5]; Ag 1.0 mg/l
  Vibrio counts on TCBS (cfu/ml) With thiosulphate: <3.00 x 10^2 cfu/ml
[5]; Ag 1.25 mg/l as silver nitrate
  Vibrio counts on TCBS (cfu/ml) Without thiosulphate: <3.00 x 10^2 cfu/ml
[5]; Ag 1.5 mg/l as silver nitrate
  Vibrio counts on TCBS (cfu/ml) Without thiosulphate: <3.00 x 10^2 cfu/ml
[5]; Ag 1.5 mg/l
  Vibrio counts on TCBS (cfu/ml) With thiosulphate: <3.00 x 10^2 cfu/ml
[5]; Ag 1.75 mg/l as silver nitrate
  Vibrio counts on TCBS (cfu/ml) Without thiosulphate: <3.00 x 10^2 cfu/ml
[5]; Ag 2.0 mg/l as silver nitrate
  Vibrio counts on TCBS (cfu/ml) Without thiosulphate: <3.00 x 10^2 cfu/ml
[5]; Ag 2.0 mg/l
  Vibrio counts on TCBS (cfu/ml) With thiosulphate: <3.00 x 10^2 cfu/ml
[5]; Ag 2.5 mg/l
  Vibrio counts on TCBS (cfu/ml) With thiosulphate: <3.00 x 10^2 cfu/ml
[5]; Ag 5.0 mg/l
  Vibrio counts on TCBS (cfu/ml) With thiosulphate: <3.00 x 10^2 cfu/ml
[5]; Ag 10.0 mg/l
  Vibrio counts on TCBS (cfu/ml) With thiosulphate: <3.00 x 10^2 cfu/ml
[6]
  toxicity levels (EC50): 0.022 mg Ag/l
[7]
  toxicity levels (EC50): 0.014 mg Ag/l
[8]
  toxicity levels (EC50): 0.055 mg Ag/l
[9]; [19]
  MA (cfu/ml): 2.69 x 10^7 cfu/ml
[9]; [14]
  MA (cfu/ml): 1.29 x 10^7 cfu/ml
[9]; [15]
  MA (cfu/ml): 3.17 x 10^7 cfu/ml
[9]; [16]
  MA (cfu/ml): 1.20 x 10^7 cfu/ml
[9]; [17]
  MA (cfu/ml): 8.07 x 10^6 cfu/ml
[9]; [18]
  MA (cfu/ml): 6.55 x 10^6 cfu/ml
[10]; [19]
  TCBS (cfu/ml): <3.00 x 10^2 cfu/ml
[10]; [14]
  TCBS (cfu/ml): 5.66 x 10^3 cfu/ml
[10]; [15]
  TCBS (cfu/ml): <3.00 x 10^2 cfu/ml
[10]; [16]
  TCBS (cfu/ml): <3.00 x 10^2 cfu/ml
[10]; [17]
  TCBS (cfu/ml): <3.00 x 10^2 cfu/ml
[10]; [18]
  TCBS (cfu/ml): <3.00 x 10^2 cfu/ml
[11]; Ag 0.1 mg/l as silver nitrate
  Hatching percentage (%) Without thiosulphate: 77.1%
[11]; Ag 0.1 mg/l
  Hatching percentage (%) With thiosulphate: 79.9%
[11]; Ag 0.25 mg/l as silver nitrate
  Hatching percentage (%) Without thiosulphate: 76.6%
[11]; Ag 0.25 mg/l
  Hatching percentage (%) With thiosulphate: 78.6%
[11]; Ag 0.5 mg/l as silver nitrate
  Hatching percentage (%) Without thiosulphate: 78.3%
[11]; Ag 0.5 mg/l
  Hatching percentage (%) With thiosulphate: 76.0%
[11]; Ag 0.75 mg/l as silver nitrate
  Hatching percentage (%) Without thiosulphate: 73.9%
[11]; Ag 1.0 mg/l as silver nitrate
  Hatching percentage (%) Without thiosulphate: 72.5%
[11]; Ag 1.0 mg/l
  Hatching percentage (%) With thiosulphate: 74.4%
[11]; Ag 1.25 mg/l as silver nitrate
  Hatching percentage (%) Without thiosulphate: 75.5%
[11]; Ag 1.5 mg/l as silver nitrate
  Hatching percentage (%) Without thiosulphate: 71.1%
[11]; Ag 1.5 mg/l
  Hatching percentage (%) With thiosulphate: 76.3%
[11]; Ag 1.75 mg/l as silver nitrate, hatching is delayed (maximal HP not reached after 24 h)
  Hatching percentage (%) Without thiosulphate: 69.9* %
[11]; Ag 2.0 mg/l as silver nitrate, hatching is delayed (maximal HP not reached after 24 h)
  Hatching percentage (%) Without thiosulphate: 65.0* %
[11]; Ag 2.0 mg/l
  Hatching percentage (%) With thiosulphate: 74.3%
[11]; Ag 2.5 mg/l as silver nitrate, hatching is delayed (maximal HP not reached after 24 h)
  Hatching percentage (%) Without thiosulphate: 50.0* %
[11]; Ag 2.5 mg/l
  Hatching percentage (%) With thiosulphate: 75.6%
[11]; Ag 5.0 mg/l as silver nitrate, hatching is delayed (maximal HP not reached after 24 h)
  Hatching percentage (%) Without thiosulphate: 28.0* %
[11]; Ag 5.0 mg/l
  Hatching percentage (%) With thiosulphate: 77.6%
[11]; Ag 10.0 mg/l as silver nitrate
  Hatching percentage (%) Without thiosulphate: 0%
[11]; Ag 10.0 mg/l
  Hatching percentage (%) With thiosulphate: 77.1%
[11]; more than 2 mg/l till at least 10 mg/l Ag, thiosulphate 4 mol per 1 mol AgNO3
  hatching of the Artemia naupllii: still not affected
[11]; very high concentrations (> 10 mg/l), without thiosulphate
  hatching of Artemia nauplii: do not hatch at all
[12]
  pathogenic Vibrio sp. in the shrimp tanks: a reduction in pathogenic Vibrio sp. was noticed

## COc1ccc2cc3[n+](cc2c1OC)CCc1cc2c(cc1-3)OCO2 [berberine, reference compound]
[2]; berberine 0.1 mg/l to 2.5 mg/l added together with silver 0.1 mg Ag per liter
  reduction in Vibrio species: some reduction in Vibrio species is observed
[13]
  inhibitory activity: 50 to 400 mg/L

## silver thiosulphate [silver nitrate and thiosulphate]
[9]; [20]
  total counts on Marine Agar: not affected
[10]; [20]
  TCBS (Vibrio sp.) in the medium with treated cysts: < 300 cfu/ml
